# From the supplement of paper PMC10307832
# What was measured:
# Experiment in all cases: relative viability (nuclei count vs DMSO), 5 days (fraction); higher = more cells survive
# [1] = compound: COc1cc(N2CCC(N3CCN(C)CC3)CC2)ccc1Nc1ncc(Cl)c(Nc2ccccc2S(=O)(=O)C(C)C)n1 [NVP-TAE684]
# Method in brief: (§1)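 Following overnight incubation at 37 °C, lung cancer cell lines in 1536-well plates were pinned with five library-drug doses (not always all listed) in √10 steps on vehicle-anchored plates. The cells then spent 5 days without medium change before a combined fix, permeabilisation and Hoechst stain, 4× imaging and MetaXpress nuclear counts. Viability is the treated-to-vehicle ratio of nuclei, taken as the median across plates. Only plates with control CV below 25% and at least one doubling passed.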
# [2] = compound: C1=CC=C2C(=C1)N=C(S2)C(C#N)C3=NC(=NC=C3)NCCC4=CN=CC=C4
# Method in brief: as §1
# [3] = compound: COc1cc2/c(=N/c3ccc(Br)cc3F)nc[nH]c2cc1OCC1CCN(C)CC1 [Vandetanib]
# Method in brief: as §1
# [4] = compound: C#Cc1cccc(Nc2ncnc3cc(OC)c(OCCCCCCC(=O)NO)cc23)c1 [CUDC-101]
# Method in brief: as §1
Cell Line,relative viability ([1]; 0.2 µM),relative viability ([1]; 0.6325 µM),relative viability ([1]; 2 µM),relative viability ([2]; 0.005 µM),relative viability ([2]; 0.01581 µM),relative viability ([2]; 0.05 µM),relative viability ([2]; 0.1581 µM),relative viability ([2]; 0.5 µM),relative viability ([3]; 0.02 µM),relative viability ([3]; 0.06325 µM),relative viability ([3]; 0.2 µM),relative viability ([3]; 0.6325 µM),relative viability ([3]; 2 µM),relative viability ([4]; 0.01 µM),relative viability ([4]; 0.03162 µM),relative viability ([4]; 0.1 µM),relative viability ([4]; 0.3162 µM),relative viability ([4]; 1 µM)
IA-LM,0.712,0.885,0.75,0.834,1.19,0.997,1.02,0.762,0.996,0.895,0.946,1.09,1.15,1.01,0.861,1.06,0.879,0.697
NCI-H520,0.969,0.986,0.767,0.847,0.973,0.953,0.968,0.96,0.995,0.986,0.925,0.95,0.938,0.997,0.914,0.982,1.02,0.686
NCI-H2342,0.917,0.849,0.647,0.82,0.978,0.874,1,0.938,1,0.964,0.953,0.95,0.949,1.06,0.931,0.973,0.996,0.923
NCI-H358,0.898,0.791,0.289,0.784,0.904,0.823,1.06,0.913,0.918,0.86,0.877,0.731,0.568,1.04,0.873,0.91,0.804,0.63
HOP-62,–,1,1.04,0.951,1.08,1.01,1.24,1.07,0.947,1.02,1.01,1.02,1.04,0.971,1.07,1.06,1,0.941
NCI-H2170,0.995,0.969,1.04,0.894,0.991,0.949,1,0.913,0.944,0.917,1,0.97,0.989,0.974,0.987,1.06,1.01,0.9
NCI-H522,0.953,0.874,0.923,0.958,0.795,0.761,1.11,0.878,0.915,1.03,0.91,0.933,0.97,0.879,1.09,1.01,0.979,0.743
NCI-H1651,0.946,0.966,0.868,0.884,1.02,1.14,1.07,0.984,0.943,0.961,0.979,0.96,0.893,1.05,0.984,0.991,1.08,0.932
NCI-H460,1.08,1.02,–,0.925,0.999,0.995,1.14,0.934,0.964,0.992,1.02,1,0.963,1,0.902,0.977,1.01,0.996
NCI-H1734,0.983,0.901,0.705,0.787,0.91,0.963,1.14,0.871,0.954,0.93,1.03,0.894,1.01,1.01,0.942,1.05,0.95,0.703
NCI-H1915,1.02,1.02,0.949,0.925,1.03,0.969,1.1,0.94,0.956,0.984,1.01,0.97,0.985,0.981,1.03,0.956,0.936,0.793
NCI-H661,0.99,0.972,0.95,1.05,1.02,0.941,0.998,1.02,0.943,0.989,0.967,1.05,0.901,1.01,0.907,1.02,0.945,0.637
Calu-6,0.937,0.992,0.758,0.999,0.983,0.978,1.12,0.912,0.958,0.946,1.02,0.988,0.95,1.03,0.998,0.979,0.993,0.857
NCI-H2228,0.632,0.36,0.29,0.839,1.12,0.962,1.17,0.956,1.04,0.983,0.836,1.12,0.809,1.02,1.23,0.946,1.09,1.07
NCI-H1975,0.974,0.926,0.608,0.858,0.912,1.01,1.1,0.653,0.931,0.888,0.871,0.997,0.805,0.996,0.917,0.934,1.03,0.91
NCI-H2087,1.09,–,0.989,0.993,1.03,1.03,1.13,0.981,0.934,0.938,1.02,1.15,1.14,1.24,1.06,0.95,1.1,0.884
LCLC-97TM1,0.897,0.735,0.471,0.944,0.991,0.974,1.13,1.08,1.05,0.939,1.01,1.05,0.832,1.05,0.917,1.06,1.02,0.832
NCI-H1703,1.07,0.845,–,0.814,0.841,0.782,0.889,1.14,1.02,0.673,0.963,0.775,0.537,0.997,0.743,1.1,1.19,0.904
EPLC-272H,0.9,0.667,0.688,0.915,0.882,0.958,1.11,0.895,0.941,0.834,0.975,0.941,0.923,1.04,0.9,0.838,0.79,0.418
